This test concerns the target T1, PSMA-expressing LNCaP cells (Homo sapiens, UniProt Q04609).
T1 construct: PSMA-expressing LNCaP cells; endogenous in cells; host or cells: LNCaP
Description: Binding competition assay against 3H-PSMA-617 on LNCaP cells. The note with it: LNCaP cells, 10 nM 3H-PSMA-617, 2 h at 37° C., triplicates; for remaining activity at 0.01 µM: competing non-radiolabeled compound 10 nM; for remaining activity at 0.1 µM: competing non-radiolabeled compound 100 nM. The essentials: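 Compounds added to LNCaP cells in growth medium, 2 h at 37 °C, 5% CO2. After two ice-cold PBS washes, cells lysed in 0.3 M NaOH and bound radioactivity measured by liquid scintillation counting.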

Drawing on US20230072421A1, “TARGETED RADIOPHARMACEUTICALS FOR THE DIAGNOSIS AND TREATMENT OF PROSTATE CANCER” (Bayer AS, priority 2019, published 2023), this text covers remaining activity for seven compounds.

T1 sequence (Q04609 whole entry): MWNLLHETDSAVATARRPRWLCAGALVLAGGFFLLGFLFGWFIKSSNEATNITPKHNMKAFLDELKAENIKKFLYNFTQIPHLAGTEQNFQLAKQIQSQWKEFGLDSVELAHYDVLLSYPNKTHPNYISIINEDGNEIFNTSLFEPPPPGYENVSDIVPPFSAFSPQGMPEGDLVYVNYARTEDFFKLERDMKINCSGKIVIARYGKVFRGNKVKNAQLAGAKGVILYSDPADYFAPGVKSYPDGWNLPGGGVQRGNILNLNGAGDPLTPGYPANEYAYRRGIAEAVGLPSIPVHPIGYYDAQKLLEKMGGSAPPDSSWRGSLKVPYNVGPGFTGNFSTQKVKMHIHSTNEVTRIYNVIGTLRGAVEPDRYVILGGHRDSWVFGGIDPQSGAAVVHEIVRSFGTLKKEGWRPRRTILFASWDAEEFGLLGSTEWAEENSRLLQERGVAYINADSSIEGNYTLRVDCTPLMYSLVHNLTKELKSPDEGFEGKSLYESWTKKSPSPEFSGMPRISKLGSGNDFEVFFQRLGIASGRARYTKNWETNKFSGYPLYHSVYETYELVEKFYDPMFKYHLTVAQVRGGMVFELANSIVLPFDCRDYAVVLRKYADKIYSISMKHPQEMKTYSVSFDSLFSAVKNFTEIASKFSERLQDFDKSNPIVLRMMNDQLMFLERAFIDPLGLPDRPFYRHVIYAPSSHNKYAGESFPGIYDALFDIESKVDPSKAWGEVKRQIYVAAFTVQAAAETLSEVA

As usually defined, the remaining activity is the signal under treatment as a percentage of the control signal. For `Nc1ccc(-c2ccn(CC(=O)N[C@@H](Cc3ccc4ccccc4c3)C(=O)NCCCC[C@H](NC(=O)N[C@@H](CCC(=O)O)C(=O)O)C(=O)O)n2)cc1` [Example 28-A, (4S,11S,15S)-1-[3-(4-aminophenyl)-1H-pyrazol-1-yl]-4-[(naphthalen-2-yl)methyl]-2,5,13-trioxo-3,6,12,14-tetraazaheptadecane-11,15,17-tricarboxylic acid], the remaining activity at 0.01 µM stood at 107% and the remaining activity at 0.1 µM was 60%.

`O=C(O)CC[C@H](NC(=O)N[C@@H](CCCCNC(=O)[C@H](Cc1ccc2ccccc2c1)NC(=O)Cn1ccc(-c2ccc(NC(=O)CN3CCN(CC(=O)O)CCN(CC(=O)O)CCN(CC(=O)O)CC3)cc2)n1)C(=O)O)C(=O)O` [Example 28-B, (4S,11S,15S)-4-[(naphthalen-2-yl)methyl]-2,5,13-trioxo-1-[3-(4-{2-[4,7,10-tris(carboxymethyl)-1,4,7,10-tetraazacyclododecan-1-yl]acetamido}phenyl)-1H-pyrazol-1-yl]-3,6,12,14-tetraazaheptadecane-11,15,17-tricarboxylic acid]: the remaining activity at 0.01 µM was determined as 33% and the remaining activity at 0.1 µM turned out to be 90%.

In the case of `NC[C@H]1CC[C@H](CNC(=O)N[C@@H](Cc2ccc3ccccc3c2)C(=O)NCCCC[C@H](NC(=O)N[C@@H](CCC(=O)O)C(=O)O)C(=O)O)CC1` [Example 29-A, (5S,12S,16S)-1-[(1r,4S)-4-(aminomethyl)cyclohexyl]-5-[(naphthalen-2-yl)methyl]-3,6,14-trioxo-2,4,7,13,15-pentaazaoctadecane-12,16,18-tricarboxylic acid], the remaining activity at 0.01 µM amounted to 113% and the remaining activity at 0.1 µM is 92%.

Regarding `O=C(O)CC[C@H](NC(=O)N[C@@H](CCCCNC(=O)[C@H](Cc1ccc2ccccc2c1)NC(=O)NCC1CCNCC1)C(=O)O)C(=O)O` [Example 30-A, (5S,12S,16S)-5-[(naphthalen-2-yl)methyl]-3,6,14-trioxo-1-(piperidin-4-yl)-2,4,7,13,15-pentaazaoctadecane-12,16,18-tricarboxylic acid], the remaining activity at 0.01 µM was 136% and the remaining activity at 0.1 µM was found to be 96%.

`NC[C@H]1CC[C@H](C(=O)N[C@@H](Cc2ccc(Br)cn2)C(=O)NCCCC[C@H](NC(=O)N[C@@H](CCC(=O)O)C(=O)O)C(=O)O)CC1` [Example 31-A, N^6—{N-[(1r,4S)-4-(aminomethyl)cyclohexane-1-carbonyl]-3-(5-bromopyridin-2-yl)-L-alanyl}-N^2-{[(1S)-1,3-dicarboxypropyl]carbamoyl}-L-lysine]: the remaining activity at 0.01 µM came out at 61% and the remaining activity at 0.1 µM worked out at 78%.

For the compound `NCc1ccc(C(=O)N[C@@H](Cc2cnc3ccccc3c2)C(=O)NCCCC[C@H](NC(=O)N[C@@H](CCC(=O)O)C(=O)O)C(=O)O)nc1` [Example 32-A, N^6—{N-[5-(aminomethyl)pyridine-2-carbonyl]-3-(quinolin-3-yl)-L-alanyl}-N^2-{[(1S)-1,3-dicarboxypropyl]carbamoyl}-L-lysine], the remaining activity at 0.01 µM is 84% and the remaining activity at 0.1 µM was determined as 46%.

As for `O=C(O)CC[C@H](NC(=O)N[C@@H](CCCCNC(=O)[C@@H](Cc1cnc2ccccc2c1)NC(=O)c1ccc(CNC(=O)CN2CCN(CC(=O)O)CCN(CC(=O)O)CCN(CC(=O)O)CC2)cn1)C(=O)O)C(=O)O` [Example 32-B, N^6-{3-(quinolin-3-yl)-N-[5-({2-[4,7,10-tris(carboxymethyl)-1,4,7,10-tetraazacyclododecan-1-yl]acetamido}methyl)pyridine-2-carbonyl]-D-alanyl}-N^2-{[(1S)-1,3-dicarboxypropyl]carbamoyl}-L-lysine], the remaining activity at 0.01 µM was 88% and the remaining activity at 0.1 µM is 35%.
